Results taken from ChEMBL document CHEMBL3885881, “DrugMatrix”.

Species on record: Rattus norvegicus
Test: DrugMatrix - Regimen: Daily Repeat
Type: toxicity, organism-based, Sprague-Dawley
Parameters: regimen Daily Repeat, gender Male, age 6-8 weeks
Conditions: in vivo, po, 30 mg/kg, route oral GAVAGE, dose level Low, vehicle .5 % CMC; for ABSOLUTE BASOPHIL / ABSOLUTE EOSINOPHIL / ABSOLUTE LYMPHOCYTE / ABSOLUTE MONOCYTE / ABSOLUTE SEGMENTED NEUTROPHIL / BASOPHIL / EOSINOPHIL / ERYTHROCYTE COUNT / HEMATOCRIT / HEMOGLOBIN / LEUKOCYTE COUNT / LYMPHOCYTE / MEAN CORPUSCULAR HEMOGLOBIN / MEAN CORPUSCULAR HEMOGLOBIN CONCENTRATION / MEAN CORPUSCULAR VOLUME / MONOCYTE / NEUTROPHIL / NUCLEATED RED BLOOD CELLS / PLATELET COUNT: tissue Blood; for ALANINE AMINOTRANSFERASE / ALBUMIN / ALKALINE PHOSPHATASE / ASPARTATE AMINOTRANSFERASE / BLOOD UREA NITROGEN / CARBON DIOXIDE / CHLORIDE / CHOLESTEROL / CREATINE PHOSPHOKINASE / CREATININE / GLUCOSE / LACTATE DEHYDROGENASE / LIPASE / PHOSPHORUS / POTASSIUM / SODIUM / TOTAL BILIRUBIN / TOTAL PROTEIN / URIC ACID: tissue Plasma

CC(=O)CCCCn1c(=O)c2c(ncn2C)n(C)c1=O [PENTOXIFYLLINE] was tested, and the “ABSOLUTE BASOPHIL” value (72 h, time 3 day) was 0 CELLS/uL, the “ABSOLUTE EOSINOPHIL” value (72 h, time 3 day) was 54.67 CELLS/uL and the “ABSOLUTE LYMPHOCYTE” value (72 h, time 3 day) was 16028 CELLS/uL. The “ABSOLUTE MONOCYTE” value (72 h, time 3 day) was 106.67 CELLS/uL, the “ABSOLUTE SEGMENTED NEUTROPHIL” value (72 h, time 3 day) was 1677.33 CELLS/uL and the BASOPHIL (72 h, time 3 day) was 0%. For the same molecule, the EOSINOPHIL (72 h, time 3 day) was 0.33%, the “ERYTHROCYTE COUNT” value (72 h, time 3 day) was 4.93 x10E6/uL and the HEMATOCRIT (72 h, time 3 day) was 32.23%. For the same molecule, the HEMOGLOBIN (72 h, time 3 day) was 12.6 G/DL, the “LEUKOCYTE COUNT” value (72 h, time 3 day) was 17.87 x10E3/uL and the LYMPHOCYTE (72 h, time 3 day) was 89.67%. For the same molecule, the “MEAN CORPUSCULAR HEMOGLOBIN” value (72 h, time 3 day) was 25.6 pg, the “MEAN CORPUSCULAR HEMOGLOBIN CONCENTRATION” value (72 h, time 3 day) was 39.1 G/DL and the “MEAN CORPUSCULAR VOLUME” value (72 h, time 3 day) was 65.47 fL. The MONOCYTE (72 h, time 3 day) was 0.67%, the NEUTROPHIL (72 h, time 3 day) was 9.33% and the “NUCLEATED RED BLOOD CELLS” value (72 h, time 3 day) was 0.33 /100WBC. For the same molecule, the “PLATELET COUNT” value (72 h, time 3 day) was 1350 x10E3/uL, the “ALANINE AMINOTRANSFERASE” value (72 h, time 3 day) was 62.33 u/L and the ALBUMIN (72 h, time 3 day) was 4.27 G/DL. The “ALKALINE PHOSPHATASE” value (72 h, time 3 day) was 546.33 u/L, the “ASPARTATE AMINOTRANSFERASE” value (72 h, time 3 day) was 100.33 u/L and the “BLOOD UREA NITROGEN” value (72 h, time 3 day) was 17.33 mg/dL. The “CARBON DIOXIDE” value (72 h, time 3 day) was 24.67 mmol/L, the CHLORIDE (72 h, time 3 day) was 107.67 MEQ/L and the CHOLESTEROL (72 h, time 3 day) was 71 mg/dL. The “CREATINE PHOSPHOKINASE” value (72 h, time 3 day) was 318.67 u/L, the CREATININE (72 h, time 3 day) was 0.21 mg/dL and the GLUCOSE (72 h, time 3 day) was 160.67 mg/dL. For the same molecule, the “LACTATE DEHYDROGENASE” value (72 h, time 3 day) was 438.67 u/L, the LIPASE (72 h, time 3 day) was 10 u/L and the PHOSPHORUS (72 h, time 3 day) was 13.7 mg/dL. The POTASSIUM (72 h, time 3 day) was 6.67 MEQ/L, the SODIUM (72 h, time 3 day) was 149.33 MEQ/L and the “TOTAL BILIRUBIN” value (72 h, time 3 day) was 0.2 mg/dL. For the same molecule, the “TOTAL PROTEIN” value (72 h, time 3 day) was 5.87 G/DL, the “URIC ACID” value (72 h, time 3 day) was 1.47 mg/dL and the “ABSOLUTE BASOPHIL” value (120 h, time 5 day) was 0 CELLS/uL. The “ABSOLUTE EOSINOPHIL” value (120 h, time 5 day) was 0 CELLS/uL, the “ABSOLUTE LYMPHOCYTE” value (120 h, time 5 day) was 10793.33 CELLS/uL and the “ABSOLUTE MONOCYTE” value (120 h, time 5 day) was 47.67 CELLS/uL. The “ABSOLUTE SEGMENTED NEUTROPHIL” value (120 h, time 5 day) was 492.33 CELLS/uL, the BASOPHIL (120 h, time 5 day) was 0% and the EOSINOPHIL (120 h, time 5 day) was 0%. For the same molecule, the “ERYTHROCYTE COUNT” value (120 h, time 5 day) was 5.84 x10E6/uL, the HEMATOCRIT (120 h, time 5 day) was 36.73% and the HEMOGLOBIN (120 h, time 5 day) was 13.57 G/DL. For the same molecule, the “LEUKOCYTE COUNT” value (120 h, time 5 day) was 11.33 x10E3/uL, the LYMPHOCYTE (120 h, time 5 day) was 95.33% and the “MEAN CORPUSCULAR HEMOGLOBIN” value (120 h, time 5 day) was 23.23 pg. For the same molecule, the “MEAN CORPUSCULAR HEMOGLOBIN CONCENTRATION” value (120 h, time 5 day) was 36.97 G/DL, the “MEAN CORPUSCULAR VOLUME” value (120 h, time 5 day) was 62.93 fL and the MONOCYTE (120 h, time 5 day) was 0.33%. For the same molecule, the NEUTROPHIL (120 h, time 5 day) was 4.33%, the “NUCLEATED RED BLOOD CELLS” value (120 h, time 5 day) was 0.33 /100WBC and the “PLATELET COUNT” value (120 h, time 5 day) was 1319.67 x10E3/uL. For the same molecule, the “ALANINE AMINOTRANSFERASE” value (120 h, time 5 day) was 45 u/L, the ALBUMIN (120 h, time 5 day) was 4.5 G/DL and the “ALKALINE PHOSPHATASE” value (120 h, time 5 day) was 368 u/L. The “ASPARTATE AMINOTRANSFERASE” value (120 h, time 5 day) was 79.67 u/L, the “BLOOD UREA NITROGEN” value (120 h, time 5 day) was 18.33 mg/dL and the “CARBON DIOXIDE” value (120 h, time 5 day) was 23 mmol/L. For the same molecule, the CHLORIDE (120 h, time 5 day) was 105.33 MEQ/L, the CHOLESTEROL (120 h, time 5 day) was 65 mg/dL and the “CREATINE PHOSPHOKINASE” value (120 h, time 5 day) was 458.33 u/L. For the same molecule, the CREATININE (120 h, time 5 day) was 0.21 mg/dL, the GLUCOSE (120 h, time 5 day) was 166 mg/dL and the “LACTATE DEHYDROGENASE” value (120 h, time 5 day) was 154.67 u/L. The LIPASE (120 h, time 5 day) was 10.33 u/L, the PHOSPHORUS (120 h, time 5 day) was 13.7 mg/dL and the POTASSIUM (120 h, time 5 day) was 7.08 MEQ/L. The SODIUM (120 h, time 5 day) was 148.67 MEQ/L, the “TOTAL BILIRUBIN” value (120 h, time 5 day) was 0.2 mg/dL and the “TOTAL PROTEIN” value (120 h, time 5 day) was 6.43 G/DL. The “URIC ACID” value (120 h, time 5 day) was 2.37 mg/dL.
